Measured values reported in US20250313575A1, “MACROCYCLES AS LRRK2 INHIBITORS, PHARMACEUTICAL COMPOSITIONS, AND USES THEREOF” (Merck Sharp & Dohme LLC, priority 2022, published 2025).

Biological target: GST-tagged truncated human mutant G2019S LRRK2 (Homo sapiens (Human), UniProt Q5S007, G2019S)
Assay: LRRK2 G2019S Km ATP LanthaScreen assay
Assay type: biochemical
Conditions: G2019S LRRK2, 134 μM ATP (Km ATP), LRRKtide substrate
Method: Unless otherwise noted, all reactions are magnetically allowed to stir, diethyl ether used in the experiments described below is Fisher ACS certified material stabilized with BHT, and “concentrated” and/or “solvent removed under reduced pressure” means evaporating the solvent from a solution or mixture using a rotary evaporator or vacuum pump. Unless otherwise noted, flash chromatography is carried out on a Teledyne Isco (Lincoln, NE), Analogix (Burlington, WI), or Biotage (Stockholm, SWE) automated chromatography system using a commercially available cartridge as the column. Columns may be purchased from Teledyne Isco, Analogix, Biotage, Varian (Palo Alto, CA), or Supelco (Bellefonte, PA) and are usually filled with silica gel as the stationary phase. Reverse phase prep-HPLC conditions, where used, can be found at the end of each experimental section. Aqueous solutions were concentrated on a Genevac (Ipswich, ENG) or by freeze-drying/lyophilization. Unless otherwise noted, all LRRK2 pIC50 data presented in tables refers to the LRRK2 G2019S Km ATP LanthaScreen™ assay (Life Technologies Corp., Carlsbad, CA) that is described in the Biological Assay section.
The LRRK2 kinase activity reported herein as IC50 values was determined with LanthaScreen™ technology from Life Technologies Corporation (Carlsbad, CA) using GST-tagged truncated human mutant G2019S LRRK2 in the presence of the fluorescein-labeled peptide substrate LRRKtide, also from Life Technologies. The data presented for the […] depending on the specific conditions and reagents used. Assays were performed in the presence of 134 μM ATP (Km ATP). Upon completion, the assay was stopped and phosphorylated substrate detected with a terbium (Tb)-labeled anti-pERM antibody (cat. no. PV4898). The compound dose response was prepared by diluting a 10 mM stock of compound to a maximum concentration of 9.99 μM in 100% dimethylsulfoxide followed by custom fold serial dilution in dimethylsulfoxide nine times. Twenty nanoliters of each dilution was spotted via a Labcyte Echo onto a 384-well black-sided plate (Corning 3575) followed by 15 μl of a 1.25 nM enzyme solution in 1× assay buffer (50 mM Tris pH 8.5, 10 mM MgCl2, 0.01% Brij-35, 1 mM EGTA, 2 mM dithiothreitol, 0.05 mM sodium orthovanadate). Following a 15-minute incubation at room temperature, the kinase reaction was started with the addition of 5 μl of 400 nM fluorescein-labeled LRRKtide peptide substrate and 134 μM ATP solution in 1× assay buffer. The reaction was allowed to progress at ambient temperature for 90 minutes. The reaction was then stopped by the addition of 20 μl of TR-FRET Dilution Buffer (Life Technologies, Carlsbad, CA) containing 2 nM Tb-labeled anti-phospho LRRKtide antibody and 10 mM EDTA (Life Technologies, Carlsbad, CA). After an incubation of 1 h at room temperature, the plate was read on an EnVision multimode plate reader (Perkin Elmer, Waltham, MA) with an excitation wavelength of 337 nm (Laser) and a reading emission at both 520 and 495 nm. Compound IC50s were interpolated from nonlinear regression best fits of the log of the final compound concentration, plotted as a function of the 520/495-nm emission ratio using Activity base. Abase uses a 4 parameter (4P) logistic fit based on the Levenberg-Marquardt algorithm.

Chain of GST-tagged truncated human mutant G2019S LRRK2 (Q5S007 970-2527 G2019S): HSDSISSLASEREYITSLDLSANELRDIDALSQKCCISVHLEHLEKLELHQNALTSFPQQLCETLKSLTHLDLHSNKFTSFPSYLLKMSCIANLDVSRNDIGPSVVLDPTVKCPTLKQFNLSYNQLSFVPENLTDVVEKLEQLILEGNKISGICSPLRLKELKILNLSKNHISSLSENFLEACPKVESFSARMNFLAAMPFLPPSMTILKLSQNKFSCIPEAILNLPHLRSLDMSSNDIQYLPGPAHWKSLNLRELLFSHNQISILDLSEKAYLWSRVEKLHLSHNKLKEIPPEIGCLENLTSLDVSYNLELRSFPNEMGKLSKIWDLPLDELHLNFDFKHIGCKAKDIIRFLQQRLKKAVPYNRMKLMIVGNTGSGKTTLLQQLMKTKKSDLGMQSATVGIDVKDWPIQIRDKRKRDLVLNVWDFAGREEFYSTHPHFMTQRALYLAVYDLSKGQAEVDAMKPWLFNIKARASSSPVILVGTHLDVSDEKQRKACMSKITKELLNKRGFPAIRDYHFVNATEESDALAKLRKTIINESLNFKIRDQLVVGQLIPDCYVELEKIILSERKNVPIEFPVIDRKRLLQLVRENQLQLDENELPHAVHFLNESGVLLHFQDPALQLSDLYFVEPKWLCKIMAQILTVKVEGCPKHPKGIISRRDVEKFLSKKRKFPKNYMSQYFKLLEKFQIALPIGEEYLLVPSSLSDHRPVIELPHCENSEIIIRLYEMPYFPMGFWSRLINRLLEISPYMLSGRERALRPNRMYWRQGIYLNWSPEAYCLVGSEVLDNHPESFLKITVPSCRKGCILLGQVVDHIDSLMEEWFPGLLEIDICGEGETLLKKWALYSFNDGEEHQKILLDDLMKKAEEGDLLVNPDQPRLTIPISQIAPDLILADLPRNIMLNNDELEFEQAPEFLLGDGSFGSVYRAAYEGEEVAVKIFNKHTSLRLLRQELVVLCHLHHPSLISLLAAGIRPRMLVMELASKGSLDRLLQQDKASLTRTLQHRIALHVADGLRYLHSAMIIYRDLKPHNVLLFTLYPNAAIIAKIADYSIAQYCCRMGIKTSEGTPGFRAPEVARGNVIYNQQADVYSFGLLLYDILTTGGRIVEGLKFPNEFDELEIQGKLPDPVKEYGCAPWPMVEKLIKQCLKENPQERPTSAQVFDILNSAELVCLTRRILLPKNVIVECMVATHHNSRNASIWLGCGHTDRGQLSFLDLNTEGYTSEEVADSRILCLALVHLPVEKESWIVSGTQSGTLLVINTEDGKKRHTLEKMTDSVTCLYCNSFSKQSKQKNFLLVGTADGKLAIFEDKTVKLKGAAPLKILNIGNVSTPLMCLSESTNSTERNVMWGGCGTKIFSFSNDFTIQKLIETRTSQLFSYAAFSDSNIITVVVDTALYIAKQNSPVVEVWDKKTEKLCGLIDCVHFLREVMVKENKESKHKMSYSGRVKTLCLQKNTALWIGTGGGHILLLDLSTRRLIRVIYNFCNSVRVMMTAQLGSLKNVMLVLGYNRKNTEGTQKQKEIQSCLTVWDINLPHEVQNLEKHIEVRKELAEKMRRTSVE

SMILES | LRRK2 pIC50
O[C@H]1CC[C@@H]1n1nc(C2CC2)c2c1OC[C@@H]1COC[C@H]1Nc1nc(ncc1C(F)(F)F)N2 (single isomer, unassigned) [Ex-6.8, (1R,2R)- or (1S,2S)-2-((10aS,13aS)-3-cyclopropyl-8-(trifluoromethyl)-10a,11,13a,14-tetrahydro-10H,13H-5,9-(azeno)furo[3,4-k]pyrazolo[3,4-b][1]oxa[4,6,10]triazacyclotridecin-1(4H)-yl)cyclobutan-1-ol] | >10.09
O[C@@H]1CC[C@H]1n1nc(C2CC2)c2c1OC[C@@H]1COC[C@H]1Nc1nc(ncc1C(F)(F)F)N2 (single isomer, unassigned) [Ex-6.9, (1R,2R)- or (1S,2S)-2-((10aS,13aS)-3-cyclopropyl-8-(trifluoromethyl)-10a,11,13a, 14-tetrahydro-10H,13H-5,9-(azeno)furo[3,4-k]pyrazolo[3,4-b][1]oxa[4,6,10]triazacyclotridecin-1(4H)-yl)cyclobutan-1-ol] | >10.09
Cc1nn(C)c2c1CCC[C@@H](C)Nc1nc(ncc1C(F)(F)F)N2 (single isomer, unassigned) [Ex-11.1, (R)- or (S)-1,3,7-Trimethyl-10-(trifluoromethyl)-4,5,6,7,8,14-hexahydro-1H-9,13-(azeno)pyrazolo[4,3-l][1,3,7]triazacyclotridecine] | 8.49
Cc1nn(C2CCC2)c2c1CC[C@@H]1COC[C@H]1Nc1nc(ncc1C(F)(F)F)N2 (single isomer, unassigned) [Ex-12.1, (10aS,13aS)- or (10aR,13aR)-3-Cyclobutyl-1-methyl-8-(trifluoromethyl)-3,4,10a,11,13,13a,14,15-octahydro-10H-5,9-(azeno)furo[3,4-h]pyrazolo[4,3-l][1,3,7]triazacyclotridecine] | >10.09
Cc1nn2c(c1C)Nc1ncc(C(F)(F)F)c(n1)N[C@@H](C)CCC2 (single isomer, unassigned) [Ex-16.1, 8,14,15-Trimethyl-5-(trifluoromethyl)-8,9,10,11-tetrahydro-1H,7H-2,6-(azeno)pyrazolo[1,5-a][1,3,5,9]tetraazacyclotridecine] | 7.70
Cc1c2c(nn1C1CC1)Nc1ncc(C(F)(F)F)c(n1)N[C@@H](C)CCO2 (single isomer, unassigned) [Ex-17.1, (R)- or (S)-2-cyclopropyl-3,7-dimethyl-10-(trifluoromethyl)-2,5,6,7,8,14-hexahydro-9,13-(azeno)pyrazolo[4,3-b][1]oxa[4,6,10]triazacyclotridecine] | 6.63
Cc1c2c(nn1C1CC1)Nc1ncc(C(F)(F)F)c(n1)N[C@H](C)CCO2 (single isomer, unassigned) [Ex-17.2, (R)- or (S)-2-cyclopropyl-3,7-dimethyl-10-(trifluoromethyl)-2,5,6,7,8,14-hexahydro-9,13-(azeno)pyrazolo[4,3-b][1]oxa[4,6,10]triazacyclotridecine] | 8.24
Cc1nn(C2CCC2)c2c1OC[C@H]1CN(C[C@@H]1C)c1nc(ncc1C(F)(F)F)N2 (single isomer, unassigned) [Ex-20.1, (6S,7S)- or (6R,7R)-1-Cyclobutyl-3,7-dimethyl-11-(trifluoromethyl)-1,5,6,7,8,15-hexahydro-10,14-(azeno)-6,9-methanopyrazolo[4,3-b][1]oxa[4,6,10]triazacyclotetradecine] | 5.84
Cc1nn(C2CCC2)c2c1OC[C@@H]1CN(C[C@H]1C)c1nc(ncc1C(F)(F)F)N2 (single isomer, unassigned) [Ex-20.2, (6S,7S)- or (6R,7R)-1-Cyclobutyl-3,7-dimethyl-11-(trifluoromethyl)-1,5,6,7,8,15-hexahydro-10,14-(azeno)-6,9-methanopyrazolo[4,3-b][1]oxa[4,6,10]triazacyclotetradecine] | 9.39
Cc1nn(C2CCC2)c2c1OC[C@H]1CN(CCO1)c1nc(ncc1C(F)(F)F)N2 (single isomer, unassigned) [Ex-21.1, (6R)- or (6S)-1-cyclobutyl-3-methyl-12-(trifluoromethyl)-1,5,6,8,9,16-hexahydro-11,15-(azeno)-6,10-methanopyrazolo[4,3-e][1,4]dioxa[7,9,13]triazacyclopentadecine] | 6.09
Cc1nn(C2CCC2)c2c1OC[C@@H]1CN(CCO1)c1nc(ncc1C(F)(F)F)N2 (single isomer, unassigned) [Ex-21.2, (6R)- or (6S)-1-cyclobutyl-3-methyl-12-(trifluoromethyl)-1,5,6,8,9,16-hexahydro-11,15-(azeno)-6,10-methanopyrazolo[4,3-e][1,4]dioxa[7,9,13]triazacyclopentadecine] | 8.07
Cc1nn(C(C)(C)C#N)c2c1Nc1ncc(C(F)(F)F)c(n1)N[C@@H]1CCC1CO2 (stereo partly drawn) [Ex-1.1, 2-Methyl-2-((10aR,12aR)-3-methyl-8-(trifluoromethyl)-10,10a,11,12,12a,13-hexahydro-5,9-(azeno)cyclobuta[k]pyrazolo[3,4-b][1]oxa[4,6,10]triazacyclotridecin-1 (4H)-yl)propanenitrile] | >10.09
Cn1nc(C(F)(F)F)c2c1OCC1COC[C@H]1Nc1nc(ncc1C(F)(F)F)N2 (stereo partly drawn) [Ex-1.2, (10aS,13aS)-1-Methyl-3,8-bis(trifluoromethyl)-1,4,10a,11,13a,14-hexahydro-10H,13H-5,9-(azeno)furo[3,4-k]pyrazolo[3,4-b][1]oxa[4,6,10]triazacyclotridecine] | >10.09
CCn1nc(C)c2c1OCC1(CC1)CNc1nc(ncc1C(F)(F)F)N2 [Ex-1.3, 1′-ethyl-3′-methyl-8′-(trifluoromethyl)-1′,4′,10′,11′-tetrahydro-13′H-spiro[cyclopropane-1,12′-[5,9](azeno)pyrazolo[3,4-b][1]oxa[4,6,10]triazacyclotridecine]] | 9.07

Same assay, conditions: G2019S LRRK2, 134 μM ATP (Km ATP), LRRKtide substrate; read-out: LRRK2 pIC50 (converted)

SMILES | IC50 [nM]
Cc1nn(C)c2c1CCC[C@@H](C)Nc1nc(ncc1C(F)(F)F)N2 (single isomer, unassigned) [Ex-11.2, (R)- or (S)-1,3,7-Trimethyl-10-(trifluoromethyl)-4,5,6,7,8,14-hexahydro-1H-9,13-(azeno)pyrazolo[4,3-l][1,3,7]triazacyclotridecine] | 3.16
Cc1nn(C2CCC2)c2c1CC[C@@H]1COC[C@H]1Nc1nc(ncc1C(F)(F)F)N2 (single isomer, unassigned) [Ex-12.2, (10aS,13aS)- or (10aR,13aR)-3-Cyclobutyl-1-methyl-8-(trifluoromethyl)-3,4,10a,11,13,13a,14,15-octahydro-10H-5,9-(azeno)furo[3,4-h]pyrazolo[4,3-l][1,3,7]triazacyclotridecine] | 0.24
Cc1nn2c(c1C)Nc1ncc(C(F)(F)F)c(n1)N[C@@H](C)CCC2 (single isomer, unassigned) [Ex-16.2, 8,14,15-Trimethyl-5-(trifluoromethyl)-8,9,10,11-tetrahydro-1H,7H-2,6-(azeno)pyrazolo[1,5-a][1,3,5,9]tetraazacyclotridecine] | 0.631
Cc1nn(C2CCC2)c2c1OCC[C@@H]1COCCN1c1nc(ncc1C(F)(F)F)N2 (single isomer, unassigned) [Ex-21.3, (R) or (S)-3-cyclobutyl-1-methyl-8-(trifluoromethyl)-3,4,11,12,14,14a,15,16-octahydro-5,9-(azeno)[1,4]oxazino[4,3-j]pyrazolo[4,3-b][1]oxa[4,6,10]triazacyclotridecine] | 22.9
Cc1nn(C2CCC2)c2c1OCC[C@H]1COCCN1c1nc(ncc1C(F)(F)F)N2 (single isomer, unassigned) [Ex-21.4, (R) or (S)-3-cyclobutyl-1-methyl-8-(trifluoromethyl)-3,4,11,12,14,14a,15,16-octahydro-5,9-(azeno)[1,4]oxazino[4,3-j]pyrazolo[4,3-b][1]oxa[4,6,10]triazacyclotridecine] | 2450
